The values below are quoted from earlier work in patent publication US20250312270A1, “READY-TO-INFUSE PHENYLEPHRINE COMPOSITIONS” (AMNEAL EU, LIMITED, priority 2023, published 2025).

This data set has as its system blood pressure. Conditions: doses above 6 mcg/kg/min, intravenous continuous infusion, adult patients with septic or other vasodilatory shock.

Turning to `CNC[C@H](O)c1cccc(O)c1` [phenylephrine, (R)-3-Hydroxy-α-(methylaminomethyl)benzyl alcohol], the “incremental increase in blood pressure” value is on record as “do not show significant incremental increase in blood pressure”.
